In the kinase profiling compilation of Christmann-Franck et al. (2016):
Where “and” joins values, the source holds several entries; their conditions need not be identical. Identical values can stand only once.

Experiments:
Experiment in all cases: radiometric filter-binding kinase assay, Kinase HotSpot
Conditions in all cases: compound 0.5 µM; ATP 10 µM
[1] = biological target: AURKA (human) (UniProt O14965)
[2] = biological target: CAMK1D (human) (UniProt Q8IU85)
[3] = biological target: CAMK2B (human) (UniProt Q13554)
[4] = biological target: CDK2 CCNE1 (human) (UniProt P24941+P24864)
[5] = biological target: CDK6 CCND1 (human) (UniProt Q00534+P24385)
[6] = biological target: CDK7 CCNH MNAT1 (human) (UniProt P50613+P51948+P51946)
[7] = biological target: CDK9 CCNK (human) (UniProt O75909+P50750)
[8] = biological target: CLK2 (human) (UniProt P49760)
[9] = biological target: DAPK1 (human) (UniProt P53355)
[10] = biological target: EPHA1 (human) (UniProt P21709)
[11] = biological target: EPHB2 (human) (UniProt P29323)
[12] = biological target: EPHB4 (human) (UniProt P54760)
[13] = biological target: FES (human) (UniProt P07332)
[14] = biological target: GSK3A (human) (UniProt P49840)
[15] = biological target: INSRR (human) (UniProt P14616)
[16] = biological target: MAP4K4 (human) (UniProt O95819)
[17] = biological target: MAPK10 (human) (UniProt P53779)
[18] = biological target: MAPKAPK5 (human) (UniProt Q8IW41)
[19] = biological target: MET (human) (UniProt P08581)
[20] = biological target: MINK1 (human) (UniProt Q8N4C8)
[21] = biological target: MKNK2 (human) (UniProt Q9HBH9)
[22] = biological target: MLTK (human) (UniProt Q9NYL2)
[23] = biological target: MST4 (human) (UniProt Q9P289)
[24] = biological target: MYLK (human) (UniProt Q15746)
[25] = biological target: MYLK2 (human) (UniProt Q9H1R3)
[26] = biological target: NEK11 (human) (UniProt Q8NG66)
[27] = biological target: NEK9 (human) (UniProt Q8TD19)
[28] = biological target: PAK6 (human) (UniProt Q9NQU5)
[29] = biological target: PIM1 (human) (UniProt P11309)
[30] = biological target: PLK2 (human) (UniProt Q9NYY3)
[31] = biological target: PRKACA (human) (UniProt P17612)
[32] = biological target: PRKCD (human) (UniProt Q05655)
[33] = biological target: PRKD1 (human) (UniProt Q15139)
[34] = biological target: PRKG1 (human) (UniProt Q13976)
[35] = biological target: ROCK1 (human) (UniProt Q13464)
[36] = biological target: RPS6KB2 (human) (UniProt Q9UBS0)
[37] = biological target: SGK2 (human) (UniProt Q9HBY8)
[38] = biological target: STK33 (human) (UniProt Q9BYT3)
[39] = biological target: STK39 (human) (UniProt Q9UEW8)
[40] = biological target: SYK (human) (UniProt P43405)
[41] = biological target: ULK2 (human) (UniProt Q8IYT8)
[42] = biological target: WNK2 (human) (UniProt Q9Y3S1)

AURKA (human), sequence (O14965 whole entry, looked up): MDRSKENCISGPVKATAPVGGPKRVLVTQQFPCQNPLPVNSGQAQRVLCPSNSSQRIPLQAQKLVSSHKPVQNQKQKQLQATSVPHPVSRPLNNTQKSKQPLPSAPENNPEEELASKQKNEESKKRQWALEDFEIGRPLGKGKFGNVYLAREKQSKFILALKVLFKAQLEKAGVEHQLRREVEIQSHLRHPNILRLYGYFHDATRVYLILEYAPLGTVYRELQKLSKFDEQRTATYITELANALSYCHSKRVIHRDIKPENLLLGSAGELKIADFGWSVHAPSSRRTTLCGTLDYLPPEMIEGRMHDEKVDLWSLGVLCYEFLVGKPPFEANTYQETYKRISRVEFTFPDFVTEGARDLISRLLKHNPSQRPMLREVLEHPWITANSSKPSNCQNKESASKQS
STK33 (human), sequence (Q9BYT3 whole entry, looked up): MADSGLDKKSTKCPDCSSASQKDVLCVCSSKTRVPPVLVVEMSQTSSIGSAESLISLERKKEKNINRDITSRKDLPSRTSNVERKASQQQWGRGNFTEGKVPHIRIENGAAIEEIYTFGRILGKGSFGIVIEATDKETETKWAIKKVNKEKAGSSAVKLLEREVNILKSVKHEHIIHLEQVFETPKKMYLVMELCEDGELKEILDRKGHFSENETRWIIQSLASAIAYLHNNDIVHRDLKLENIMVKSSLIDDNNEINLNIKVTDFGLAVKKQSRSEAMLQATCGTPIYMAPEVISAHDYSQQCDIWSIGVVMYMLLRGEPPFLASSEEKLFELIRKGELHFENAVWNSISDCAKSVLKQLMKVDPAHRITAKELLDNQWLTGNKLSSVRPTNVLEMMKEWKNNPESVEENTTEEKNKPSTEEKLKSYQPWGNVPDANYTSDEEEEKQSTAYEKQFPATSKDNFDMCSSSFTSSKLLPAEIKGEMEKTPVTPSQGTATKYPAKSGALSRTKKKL
PIM1 (human), sequence (P11309 whole entry, looked up): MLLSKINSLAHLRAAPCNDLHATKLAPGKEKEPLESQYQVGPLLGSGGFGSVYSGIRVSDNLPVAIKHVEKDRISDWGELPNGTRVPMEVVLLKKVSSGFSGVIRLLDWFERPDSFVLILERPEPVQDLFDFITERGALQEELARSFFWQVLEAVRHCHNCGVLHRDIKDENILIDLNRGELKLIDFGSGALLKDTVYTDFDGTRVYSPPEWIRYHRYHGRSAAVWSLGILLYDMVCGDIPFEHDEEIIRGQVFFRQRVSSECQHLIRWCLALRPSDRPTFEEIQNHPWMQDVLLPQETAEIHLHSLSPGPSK
MINK1 (human), sequence (Q8N4C8 whole entry, looked up): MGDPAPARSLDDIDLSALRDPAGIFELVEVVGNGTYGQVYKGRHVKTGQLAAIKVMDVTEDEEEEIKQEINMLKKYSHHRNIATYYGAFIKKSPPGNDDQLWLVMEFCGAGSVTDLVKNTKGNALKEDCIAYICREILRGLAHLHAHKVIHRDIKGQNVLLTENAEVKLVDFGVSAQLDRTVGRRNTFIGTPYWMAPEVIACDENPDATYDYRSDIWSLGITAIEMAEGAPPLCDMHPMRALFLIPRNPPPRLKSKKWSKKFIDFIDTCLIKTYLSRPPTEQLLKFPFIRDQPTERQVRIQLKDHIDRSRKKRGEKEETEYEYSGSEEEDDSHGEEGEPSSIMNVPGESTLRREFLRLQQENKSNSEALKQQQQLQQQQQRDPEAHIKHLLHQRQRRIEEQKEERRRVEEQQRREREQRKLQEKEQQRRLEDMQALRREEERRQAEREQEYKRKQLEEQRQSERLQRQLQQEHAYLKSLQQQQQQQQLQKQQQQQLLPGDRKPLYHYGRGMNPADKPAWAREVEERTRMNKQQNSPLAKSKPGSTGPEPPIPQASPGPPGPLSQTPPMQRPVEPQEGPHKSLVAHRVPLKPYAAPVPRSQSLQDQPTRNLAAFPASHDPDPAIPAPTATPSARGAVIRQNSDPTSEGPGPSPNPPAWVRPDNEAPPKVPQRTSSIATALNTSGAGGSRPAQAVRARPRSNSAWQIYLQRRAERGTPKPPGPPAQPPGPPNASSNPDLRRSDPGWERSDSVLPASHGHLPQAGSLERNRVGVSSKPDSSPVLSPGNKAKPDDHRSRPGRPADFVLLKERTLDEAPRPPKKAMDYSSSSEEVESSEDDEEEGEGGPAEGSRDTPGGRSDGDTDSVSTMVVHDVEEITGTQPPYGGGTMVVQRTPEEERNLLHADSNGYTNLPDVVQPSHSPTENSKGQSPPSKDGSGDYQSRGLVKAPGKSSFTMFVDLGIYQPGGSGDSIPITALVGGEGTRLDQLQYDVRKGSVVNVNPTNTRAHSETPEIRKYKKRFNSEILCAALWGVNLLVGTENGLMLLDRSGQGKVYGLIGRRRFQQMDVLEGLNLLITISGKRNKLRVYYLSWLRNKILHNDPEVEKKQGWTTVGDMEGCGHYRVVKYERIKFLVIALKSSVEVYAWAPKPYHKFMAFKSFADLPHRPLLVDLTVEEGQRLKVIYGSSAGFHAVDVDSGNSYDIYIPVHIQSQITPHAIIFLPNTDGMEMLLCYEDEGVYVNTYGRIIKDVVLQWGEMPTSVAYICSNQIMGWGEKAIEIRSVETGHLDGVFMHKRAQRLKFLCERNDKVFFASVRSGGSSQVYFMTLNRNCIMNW
CDK7 CCNH MNAT1 (human), sequence (P50613 whole entry, looked up): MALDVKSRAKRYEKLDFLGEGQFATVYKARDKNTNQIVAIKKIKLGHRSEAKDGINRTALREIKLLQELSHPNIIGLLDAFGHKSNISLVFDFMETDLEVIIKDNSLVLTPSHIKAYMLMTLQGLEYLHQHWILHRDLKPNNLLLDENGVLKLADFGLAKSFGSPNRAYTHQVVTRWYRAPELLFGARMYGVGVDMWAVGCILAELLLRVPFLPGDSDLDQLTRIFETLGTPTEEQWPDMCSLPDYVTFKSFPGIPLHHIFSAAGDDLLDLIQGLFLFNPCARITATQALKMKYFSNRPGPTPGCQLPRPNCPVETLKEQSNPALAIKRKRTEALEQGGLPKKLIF
CDK7 CCNH MNAT1 (human), sequence (P51946 whole entry, looked up): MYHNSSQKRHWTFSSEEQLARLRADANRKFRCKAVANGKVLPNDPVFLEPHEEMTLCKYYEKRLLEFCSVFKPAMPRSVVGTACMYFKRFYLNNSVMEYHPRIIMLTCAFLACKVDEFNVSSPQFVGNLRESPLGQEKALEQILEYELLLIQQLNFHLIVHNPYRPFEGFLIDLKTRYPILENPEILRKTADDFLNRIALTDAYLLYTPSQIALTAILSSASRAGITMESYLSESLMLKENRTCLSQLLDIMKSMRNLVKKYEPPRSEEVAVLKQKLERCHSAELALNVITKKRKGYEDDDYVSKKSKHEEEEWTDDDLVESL
CDK7 CCNH MNAT1 (human), sequence (P51948 whole entry, looked up): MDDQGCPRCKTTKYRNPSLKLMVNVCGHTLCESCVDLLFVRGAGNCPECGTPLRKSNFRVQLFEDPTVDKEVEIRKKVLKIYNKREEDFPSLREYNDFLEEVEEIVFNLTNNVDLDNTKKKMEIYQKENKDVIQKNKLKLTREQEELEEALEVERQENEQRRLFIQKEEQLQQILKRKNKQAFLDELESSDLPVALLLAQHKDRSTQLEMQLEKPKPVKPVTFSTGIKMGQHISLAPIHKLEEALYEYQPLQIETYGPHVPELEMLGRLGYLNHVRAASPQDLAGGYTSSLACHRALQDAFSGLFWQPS
DAPK1 (human), sequence (P53355 whole entry, looked up): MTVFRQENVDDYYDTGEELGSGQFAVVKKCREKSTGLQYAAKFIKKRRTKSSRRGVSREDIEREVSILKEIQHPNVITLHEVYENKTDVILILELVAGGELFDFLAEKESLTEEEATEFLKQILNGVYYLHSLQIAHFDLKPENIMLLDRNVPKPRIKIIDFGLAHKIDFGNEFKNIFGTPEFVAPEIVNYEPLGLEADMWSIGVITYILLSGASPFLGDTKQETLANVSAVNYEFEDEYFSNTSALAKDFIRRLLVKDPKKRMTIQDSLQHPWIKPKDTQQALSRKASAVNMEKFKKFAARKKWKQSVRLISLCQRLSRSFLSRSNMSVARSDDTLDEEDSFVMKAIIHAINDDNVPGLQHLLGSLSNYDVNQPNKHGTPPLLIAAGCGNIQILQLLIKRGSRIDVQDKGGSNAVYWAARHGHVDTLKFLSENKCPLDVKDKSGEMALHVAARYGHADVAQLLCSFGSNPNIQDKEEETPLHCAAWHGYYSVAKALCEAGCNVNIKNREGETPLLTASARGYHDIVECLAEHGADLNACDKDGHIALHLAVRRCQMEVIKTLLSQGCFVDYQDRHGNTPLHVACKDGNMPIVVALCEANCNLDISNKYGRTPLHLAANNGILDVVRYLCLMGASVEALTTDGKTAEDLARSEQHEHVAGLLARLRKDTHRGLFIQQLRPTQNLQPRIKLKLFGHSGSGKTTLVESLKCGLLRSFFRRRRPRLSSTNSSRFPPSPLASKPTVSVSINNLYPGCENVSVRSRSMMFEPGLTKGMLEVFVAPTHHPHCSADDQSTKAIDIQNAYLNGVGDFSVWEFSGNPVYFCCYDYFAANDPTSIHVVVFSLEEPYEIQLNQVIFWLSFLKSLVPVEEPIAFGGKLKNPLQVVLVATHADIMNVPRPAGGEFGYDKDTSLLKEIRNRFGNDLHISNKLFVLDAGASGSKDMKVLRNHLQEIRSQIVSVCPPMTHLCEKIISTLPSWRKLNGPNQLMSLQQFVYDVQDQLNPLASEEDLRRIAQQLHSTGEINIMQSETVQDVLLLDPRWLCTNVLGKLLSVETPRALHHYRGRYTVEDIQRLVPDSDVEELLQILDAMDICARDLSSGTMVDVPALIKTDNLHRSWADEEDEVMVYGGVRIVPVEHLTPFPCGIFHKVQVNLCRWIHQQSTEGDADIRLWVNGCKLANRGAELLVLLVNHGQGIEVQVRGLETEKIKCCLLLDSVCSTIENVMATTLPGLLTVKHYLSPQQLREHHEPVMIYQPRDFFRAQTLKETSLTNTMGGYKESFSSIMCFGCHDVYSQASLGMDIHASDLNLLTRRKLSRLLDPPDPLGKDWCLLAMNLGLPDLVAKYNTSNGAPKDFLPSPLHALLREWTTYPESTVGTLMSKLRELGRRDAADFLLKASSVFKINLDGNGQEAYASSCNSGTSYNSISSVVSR

Work on `COc1cc2nccc(Oc3ccc(NC(=S)NC(=O)c4ccccc4C)cc3)c2cc1OC` yielded a residual activity [1] of 18.9%, a residual activity [2] of 72.5% and a residual activity [3] of 104%. The residual activity [4] was 96.7%, the residual activity [5] was 87.1% and the residual activity [6] was 97.7%. The residual activity [7] was 108%, the residual activity [8] was 107% and the residual activity [9] was 101%. The residual activity [10] was 83%, the residual activity [11] was 93.5% and the residual activity [12] was 103%. For the same compound, the residual activity [13] was 96.7%, the residual activity [14] was 91.4% and the residual activity [15] was 98.2%. The residual activity [16] was 87.8%, the residual activity [17] was 98.7% and the residual activity [18] was 99%. For the same compound, the residual activity [19] was 60.4%, the residual activity [20] was 90.1% and the residual activity [21] was 94.3%. It also gave a residual activity [22] of 71.7%, a residual activity [23] of 101% and a residual activity [24] of 104%. For the same compound, the residual activity [25] was 26.8%, the residual activity [26] was 96.7% and the residual activity [27] was 103%. For the same compound, the residual activity [28] was 95.8%, the residual activity [29] was 97.6% and the residual activity [30] was 99.5%. For the same compound, the residual activity [31] was 91.8%, the residual activity [32] was 90.4% and the residual activity [33] was 137%. For the same compound, the residual activity [34] was 101% and 91.6%, the residual activity [35] was 90.5% and the residual activity [36] was 97.3%. It also gave a residual activity [37] of 97.3%, a residual activity [38] of 94.6% and a residual activity [39] of 91.5%. The residual activity [40] was 95.5%, the residual activity [41] was 88.8% and the residual activity [42] was 94.1%.
Compound `Nc1n[nH]c2nnc(-c3c(-c4ccccc4)nn4ccccc34)cc12` has a residual activity [1] of 101%, a residual activity [2] of 95.9% and a residual activity [3] of 102%. The residual activity [4] was 101%, the residual activity [5] was 100% and the residual activity [6] was 99%. For the same compound, the residual activity [7] was 98.5%, the residual activity [8] was 94.9% and the residual activity [9] was 95.9%. It also gave a residual activity [10] of 92.6%, a residual activity [11] of 93.1% and a residual activity [12] of 98.5%. For the same compound, the residual activity [13] was 97.8%, the residual activity [14] was 81.2% and the residual activity [15] was 95.7%. It also gave a residual activity [16] of 62%, a residual activity [17] of 103% and a residual activity [18] of 97.7%. It also gave a residual activity [19] of 95%, a residual activity [20] of 73% and a residual activity [21] of 98.3%. It also gave a residual activity [22] of 101%, a residual activity [23] of 75.9% and a residual activity [24] of 98.3%. For the same compound, the residual activity [25] was 101%, the residual activity [26] was 95.1% and the residual activity [27] was 93.4%. For the same compound, the residual activity [28] was 96.4%, the residual activity [29] was 100% and the residual activity [30] was 107%. It also gave a residual activity [31] of 97.7%, a residual activity [32] of 31.2% and a residual activity [33] of 68.4%. The residual activity [34] was 89.5% and 93.6%, the residual activity [35] was 100% and the residual activity [36] was 104%. The residual activity [37] was 98.8%, the residual activity [38] was 100% and the residual activity [39] was 89.1%. For the same compound, the residual activity [40] was 97.4%, the residual activity [41] was 100% and the residual activity [42] was 111%.
`O=c1cc(N2CCNCC2)oc2c(-c3ccccc3)cccc12` gave a residual activity [1] of 105%, a residual activity [2] of 82% and a residual activity [3] of 108%. The residual activity [4] was 91.6%, the residual activity [5] was 94.6% and the residual activity [6] was 99.3%. It also gave a residual activity [7] of 94.2%, a residual activity [8] of 100% and a residual activity [9] of 91.1%. The residual activity [10] was 112%, the residual activity [11] was 97.3% and the residual activity [12] was 101%. For the same compound, the residual activity [13] was 95.4%, the residual activity [14] was 99.7% and the residual activity [15] was 89.2%. For the same compound, the residual activity [16] was 92.7%, the residual activity [17] was 85% and the residual activity [18] was 104%. For the same compound, the residual activity [19] was 107%, the residual activity [20] was 97% and the residual activity [21] was 107%. The residual activity [22] was 103%, the residual activity [23] was 96.3% and the residual activity [24] was 105%. It also gave a residual activity [25] of 97.3%, a residual activity [26] of 97.9% and a residual activity [27] of 102%. The residual activity [28] was 102%, the residual activity [29] was 92.4% and the residual activity [30] was 98.9%. It also gave a residual activity [31] of 110%, a residual activity [32] of 99.6% and a residual activity [33] of 91.9%. The residual activity [34] was 100% and 102%, the residual activity [35] was 104% and the residual activity [36] was 91%. It also gave a residual activity [37] of 102%, a residual activity [38] of 86.1% and a residual activity [39] of 88.5%. It also gave a residual activity [40] of 104%, a residual activity [41] of 108% and a residual activity [42] of 111%.
`Nc1nc(Nc2ccc(S(N)(=O)=O)cc2)nn1C(=S)Nc1c(F)cccc1F` gave a residual activity [1] of 1.44%, a residual activity [2] of 93.4% and a residual activity [3] of 9.5%. For the same compound, the residual activity [4] was 8.92%, the residual activity [5] was 2.89% and the residual activity [6] was 43.6%. For the same compound, the residual activity [7] was 7.46%, the residual activity [8] was 3.81% and the residual activity [9] was 81.3%. It also gave a residual activity [10] of 37.4%, a residual activity [11] of 81.4% and a residual activity [12] of 51%. It also gave a residual activity [13] of 10.2%, a residual activity [14] of 6.3% and a residual activity [15] of 86.5%. For the same compound, the residual activity [16] was 4.46%, the residual activity [17] was 105% and the residual activity [18] was 52.2%. For the same compound, the residual activity [19] was 40.4%, the residual activity [20] was 3.06% and the residual activity [21] was 17.2%. It also gave a residual activity [22] of 49.1%, a residual activity [23] of 4.54% and a residual activity [24] of 78.8%. The residual activity [25] was 66.6%, the residual activity [26] was 101% and the residual activity [27] was 39.1%. The residual activity [28] was 81.9%, the residual activity [29] was 90.7% and the residual activity [30] was 88.5%. The residual activity [31] was 78.2%, the residual activity [32] was 22.2% and the residual activity [33] was 7.79%. For the same compound, the residual activity [34] was 85.1% and 91.3%, the residual activity [35] was 0.17% and the residual activity [36] was 96.2%. For the same compound, the residual activity [37] was 42%, the residual activity [38] was 35.1% and the residual activity [39] was 76.5%. The residual activity [40] was 15.5%, the residual activity [41] was 4.73% and the residual activity [42] was 97.9%.
